According to publication PMC5684143, “New melanocortin-like peptide of E. coli can suppress inflammation via the mammalian melanocortin-1 receptor (MC1R): possible endocrine-like function for microbes of the gut” (NPJ Biofilms and Microbiomes, 2017):

What was measured:
RAW 264.7 cells [1] = assay: HMGB1-induced TNF release by RAW 264.7 macrophage-like cells; assay type: cell-based, murine
Method: Fig. 1 MECO-1 attenuates HMGB1-induced TNF release by macrophages in culture. Murine macrophage-like RAW 264.7 cells were incubated for up to 24 h with purified recombinant HMGB1 (0.1 mg/ml) in the absence or presence of MECO-1 (Panel a), or alpha-MSH (Panel b), at 10^−10 and 10^−12 M. The levels of TNF in the culture medium were determined by ELISA and expressed as mean ± SEM of two independent experiments (in duplicate). *p < 0.05, **p < 0.01 vs. control (“HMGB1 alone”). […] In panels c and d, cells were incubated with HMGB1 for 6 h with or without MECO-1 or alpha-MSH (10^−16–10^−6 M). Data represent mean ± SEM of three independent experiments performed in duplicate. With 10^−14 M peptide, results were significant at *p < 0.05, and at 10^−12 M or more were typically **p < 0.01. In our experiments, at concentrations of MECO-1, alpha-MSH, and ACTH of around 1 nM and higher, dose response curves often reverse direction, i.e., turn upward. The reversal is more clearly seen in Fig. 2. The mechanism of the reversal is not known. (Desensitization, receptor inactivation, receptor internalization, and dissociation of dimeric receptors are all plausible candidates.) As a result, the shape of the lower part of the curve and the actual inflection point may vary from experiment to experiment. This feature may be missed when results of several experiments are combined
(§1) Murine macrophage-like RAW 264.7 cells were obtained from American Type Culture Collection, and were grown in Dulbecco’s Modified Eagle’s Medium (DMEM, Life Technologies) containing 10% (vol/vol) heat-inactivated fetal bovine serum (FBS, Hyclone Lab. Inc.), penicillin 100 U/ml, and streptomycin 100 μg/ml (BioWhittaker Inc.). Cells were suspended in medium and incubated in 24-well or 48-well tissue-culture plates overnight in a humidified incubator (37 °C, 5% CO2). Growth medium was removed and replaced by Opti-MEM I serum-free medium (Life Technologies) overnight. In the experiments, cell monolayers were stimulated with HMGB1 or LPS, in the absence or presence of MECO-1 or alpha-MSH; cell-free supernatants were assayed for TNF by ELISA or HMGB1 by western blotting.
(§2) Concentrations of TNF and IL-6 were each determined using a commercially available enzyme-linked immunosorbent assay (ELISA) kit (R&D System Inc.) as previously described.[34] The levels of TNF or IL-6 were calculated with reference to standard curves.
Fig. 3 Antibody to MC1R blocks suppressant effect of MECO-1 and alpha-MSH. Murine macrophage-like RAW 264.7 cells were pretreated with specific antibodies (“anti-MC1R Ab”) against melanocortin-1 receptor (MC1R) for 10 min prior to addition of HMGB1 in the absence or presence of MECO-1 or alpha-MSH at 10^−12 M. At 6 h, the TNF content of the cell-free medium was determined by ELISA, and expressed as mean ± SEM of two independent experiments performed in duplicate. ACTH at the same concentration gave results that were indistinguishable from those of alpha-MSH and MECO-1 (data not shown)

RAW 264.7 cells [2] = assay: LPS-induced TNF release by RAW 264.7 cells; assay type: cell-based, murine; settings: LPS 10 ng/ml; peptides 10^-12 M; agouti 10-10^5 pM
Method: as §1, §2
Fig. 2 Cytokine-induced TNF release inhibited by MECO-1. a Lipopolysaccharide (LPS), derived from the cell wall of Gram-negative bacteria, is a TLR4 and TLR2 agonist. RAW 264.7 cells were treated with MECO-1 and LPS simultaneously and incubated overnight. Supernatants were tested for TNF with ELISA. b Poly I:C, synthetic double stranded RNA, is recognized by TLR3. RAW 264.7 cells were pre-treated with MECO-1 and then stimulated with Poly I:C. Supernatants were tested in ELISA by TNF. c Peptidoglycan (PGN), another TLR2 agonist, is ubiquitous in the cell wall of bacteria. RAW 264.7 cells were pre-treated with MECO-1 and then stimulated with PGN; after overnight stimulation, supernatants were harvested and tested for TNF ELISA. d HMGB-1. Each vertical bar is the mean of three experimental points, using HMGB-1 to induce TNF release. Three sets of three experiments were used for the measurement of inhibition
Fig. 5 a Bioactive analogues of MECO-1. Murine macrophage-like RAW 264.7 cells were incubated with lipopolysaccharide (LPS, 4 ng/ml) in the absence or presence of MECO-1 or BACTN or BACFR, synthetic peptides based on the C-termini of EF-G of Bacteroides thetaiotamicron and Bacteroides fragilis. EFG-2 refers to human mitochondrial EFG-2 (mtEFG2). For Bacteroides thetaiotamicron, we used a 38-mer consisting of residues 681–703 shown in Fig. 4c followed by 704–718 QDKLIKDFEAKQTEE. For Bacteroides fragilis, we used a 33-mer consisting of residues, 681–703 shown in Fig. 4c followed by 704–713 = QDKLIKDFES. At 6 h after stimulation, aliquots of cell-free medium were examined. In other experiments, the synthetic peptide based on human mitochondrial EF-G1 (mtEFG1) gave results indistinguishable from EF-G2 (data not shown). The precise structure of the synthetic peptides is indicated in the text (see section “Results” and Table 1). Shown is a representative experiment.

[3] = tested on: human peripheral blood mononuclear cells (PBMC); assay: HMGB1-induced TNF release by human PBMC-derived macrophages; assay type: cell-based; settings: differentiated human macrophages; HMGB1 6 hours; ELISA; three independent experiments in duplicate
Method: Human PBMC were isolated by density gradient through Ficoll-Paque^TM PLUS centrifugation (Amersham Pharmacia Biotech), and suspended in RPMI 1640 containing 10% (vol/vol) heat-inactivated human serum (BioWhittaker Inc.), penicillin 100 U/ml, and streptomycin 100 μg/ml, and incubated at 37 °C in a humidified incubator with 5% CO2 atmosphere overnight. Non-adherent cells were discarded. Adherent monocytes were washed twice with PBS and were then suspended in 12-well and 24-well tissue culture plates and incubated in the same medium but now enriched with 2.5 ng/ml macrophage colony-stimulating factor for 5–7 days.[33] […]
as §2
Human peripheral blood mononuclear cells (PBMC) were isolated by density gradient centrifugation through Ficoll-PaqueTM PLUS, and cultured for 5-7 days in medium containing macrophage colony-stimulating factor (2.5 ng/ml). […] The content of TNF in the cell-free medium was determined by ELISA and expressed as mean ± SEM of three independent experiments performed in duplicate. *p< 0.05, **p< 0.01 vs. control (=HMGB1 alone without added melanocortin peptide).

RAW 264.7 cells [4] = assay: LPS-induced HMGB1 release by RAW 264.7 cells (western blot); assay type: cell-based, murine; settings: LPS 100 ng/ml, peptide 10^-10 M, 16-20 hrs, four independent experiments, P < 0.01
Method: Murine macrophage-like RAW 264.7 cells were obtained from American Type Culture Collection, and were grown in Dulbecco’s Modified Eagle’s Medium (DMEM, Life Technologies) containing 10% (vol/vol) heat-inactivated fetal bovine serum (FBS, Hyclone Lab. Inc.), penicillin 100 U/ml, and streptomycin 100 μg/ml (BioWhittaker Inc.). Cells were suspended in medium and incubated in 24-well or 48-well tissue-culture plates overnight in a humidified incubator (37 °C, 5% CO2). Growth medium was removed and replaced by Opti-MEM I serum-free medium (Life Technologies) overnight. […]
The levels of HMGB1 in the culture medium or murine serum were measured by western immunoblotting as previously described.[30] […] The relative band intensity was quantified by using the NIH image 1.59 software. The levels of HMGB1 (expressed as % maximum effect) were calculated with reference to standard curves generated with purified rHMGB1 and expressed as mean ± SEM of four experiments.
Murine macrophage-like RAW 264.7 cells were incubated with LPS (100 ng/ml) in the absence or presence of MECO-1 or alpha-MSH at 10^-10 M. At 16-20 hrs after stimulation, aliquots of cell-free medium were examined. HMGB1 levels in the (conditioned) culture medium were expressed as mean ± SEM of four independent experiments with the peak level (obtained with LPS) set at 100%. […]

O=S(=O)(NCCNC/C=C/c1ccc(Br)cc1)c1cccc2cnccc12 [H89]
effect of H89 on peptide-mediated reduction of HMGB1-induced TNF accumulation (RAW 264.7 cells [1]; H89 1mM added 10 minute before, peptides 10^-10 M, 6h, two independent experiments in duplicate): abrogated the effects of the three peptides

Mouse agouti (93-132)-NH2
effect of agouti on attenuation by MECO-1 and alpha-MSH of LPS-induced TNF release (RAW 264.7 cells [2]): reversed the attenuation

adrenocorticotropin (SYSMEHFRWGKPVGKKRRPVKVYPNGAEDESAEAFPLEF; Corticotropin; UniProt P01189 138-176, looked up) [ACTH, mammalian melanocortin hormone ACTH (1-39), purchased from Bachem]
suppression of HMGB-1-induced TNF release (RAW 264.7 cells [1]; RAW 264.7 cells, data not shown): highly significant suppression, typically in the subpicomolar range
TNF accumulation with HMGB1 on co-incubation with peptide (RAW 264.7 cells [1]; peptide 10^−12–10^−8 M): substantially reduced
attenuation of HMGB-1-induced TNF release [3]: very similar results
LPS-induced HMGB-1 secretion (RAW 264.7 cells [4]): indistinguishable from MECO-1 and alpha-MSH
